Data from ChEMBL document CHEMBL5360657, “Discovery of the TLR7/8 Antagonist MHV370 for Treatment of Systemic Autoimmune Diseases” (ACS Med Chem Lett, 2023).

How the values were obtained:
Toll-like receptor 7 [1] = target: T1, Toll-like receptor 7 (Mus musculus, UniProt P58681); assay: Antagonist activity at TLR7 in mouse Splenocyte assessed as reduction in IFN-alpha level measured after 20 hrs by Spectramax M5 method; format: cell-based
T1 sequence (P58681 whole entry): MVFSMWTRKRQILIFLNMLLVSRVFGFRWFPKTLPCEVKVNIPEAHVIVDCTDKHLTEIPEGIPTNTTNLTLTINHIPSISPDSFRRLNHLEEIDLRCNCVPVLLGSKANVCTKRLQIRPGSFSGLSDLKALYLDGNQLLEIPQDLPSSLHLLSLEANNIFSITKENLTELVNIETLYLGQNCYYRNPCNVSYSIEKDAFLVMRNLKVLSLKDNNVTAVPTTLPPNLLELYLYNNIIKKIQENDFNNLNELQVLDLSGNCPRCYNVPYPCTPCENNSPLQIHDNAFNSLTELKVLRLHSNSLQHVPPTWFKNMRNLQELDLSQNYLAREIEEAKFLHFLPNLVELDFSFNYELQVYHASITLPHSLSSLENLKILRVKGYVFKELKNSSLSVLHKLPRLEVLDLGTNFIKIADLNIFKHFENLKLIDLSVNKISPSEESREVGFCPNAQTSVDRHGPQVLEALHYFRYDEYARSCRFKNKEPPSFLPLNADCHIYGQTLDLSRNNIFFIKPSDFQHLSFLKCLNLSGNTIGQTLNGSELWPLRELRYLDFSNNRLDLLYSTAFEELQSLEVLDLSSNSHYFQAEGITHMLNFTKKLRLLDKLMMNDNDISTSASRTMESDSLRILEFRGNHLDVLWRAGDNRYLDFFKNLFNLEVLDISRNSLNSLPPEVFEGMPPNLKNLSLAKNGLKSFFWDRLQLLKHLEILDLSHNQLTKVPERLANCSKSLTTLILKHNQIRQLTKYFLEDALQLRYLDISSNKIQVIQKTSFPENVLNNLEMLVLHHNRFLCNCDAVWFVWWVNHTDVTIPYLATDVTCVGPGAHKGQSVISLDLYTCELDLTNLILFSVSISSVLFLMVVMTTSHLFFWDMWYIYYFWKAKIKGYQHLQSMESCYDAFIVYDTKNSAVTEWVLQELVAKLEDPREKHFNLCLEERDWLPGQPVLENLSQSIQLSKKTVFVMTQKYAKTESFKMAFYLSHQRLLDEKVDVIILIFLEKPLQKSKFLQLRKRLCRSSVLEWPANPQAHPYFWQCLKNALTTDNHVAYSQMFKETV

[2] = Volume of distribution at steady state in rat at 1 mg/ml, po or iv; format: ADME, organism-based; conditions: in vivo
[3] = Oral bioavailability in rat at 1 mg/ml; format: ADME, organism-based; conditions: in vivo
[4] = AUC in mouse at 1 mg/ml, po; format: ADME; design: dose 1 mg/ml, route po; conditions: in vivo
[5] = AUC in mouse at 1 mg/ml, iv; format: ADME; design: dose 1 mg/ml, route iv; conditions: in vivo
[6] = MRT in mouse at 1 mg/ml, po or iv; format: ADME, organism-based; conditions: in vivo
[7] = AUC in rat at 1 mg/ml, iv; format: ADME; design: dose 1 mg/ml, route iv; conditions: in vivo
[8] = AUC in rat at 1 mg/ml, po; format: ADME; design: dose 1 mg/ml, route po; conditions: in vivo
[9] = Volume of distribution at steady state in mouse at 1 mg/ml, po or iv; format: ADME, organism-based; conditions: in vivo
[10] = Cmax in mouse at 1 mg/ml, po; format: ADME; design: dose 1 mg/ml, route po; conditions: in vivo
[11] = Oral bioavailability in mouse at 1 mg/ml; format: ADME, organism-based; conditions: in vivo
[12] = Cmax in rat at 1 mg/ml, po; format: ADME; design: dose 1 mg/ml, route po; conditions: in vivo
[13] = MRT in rat at 1 mg/ml, po or iv; format: ADME, organism-based; conditions: in vivo
[14] = Oral bioavailability in mouse at 20 mg/kg; format: ADME, organism-based; conditions: in vivo
Toll-like receptor 7 [15] = target: T2, Toll-like receptor 7 (Homo sapiens, UniProt Q9NYK1); assay: Antagonist activity at TLR7 in human PBMC cells assessed as reduction in IFN alpha measured after 20 hrs by AlphaLISA assay; format: cell-based
T2 sequence (Q9NYK1 whole entry): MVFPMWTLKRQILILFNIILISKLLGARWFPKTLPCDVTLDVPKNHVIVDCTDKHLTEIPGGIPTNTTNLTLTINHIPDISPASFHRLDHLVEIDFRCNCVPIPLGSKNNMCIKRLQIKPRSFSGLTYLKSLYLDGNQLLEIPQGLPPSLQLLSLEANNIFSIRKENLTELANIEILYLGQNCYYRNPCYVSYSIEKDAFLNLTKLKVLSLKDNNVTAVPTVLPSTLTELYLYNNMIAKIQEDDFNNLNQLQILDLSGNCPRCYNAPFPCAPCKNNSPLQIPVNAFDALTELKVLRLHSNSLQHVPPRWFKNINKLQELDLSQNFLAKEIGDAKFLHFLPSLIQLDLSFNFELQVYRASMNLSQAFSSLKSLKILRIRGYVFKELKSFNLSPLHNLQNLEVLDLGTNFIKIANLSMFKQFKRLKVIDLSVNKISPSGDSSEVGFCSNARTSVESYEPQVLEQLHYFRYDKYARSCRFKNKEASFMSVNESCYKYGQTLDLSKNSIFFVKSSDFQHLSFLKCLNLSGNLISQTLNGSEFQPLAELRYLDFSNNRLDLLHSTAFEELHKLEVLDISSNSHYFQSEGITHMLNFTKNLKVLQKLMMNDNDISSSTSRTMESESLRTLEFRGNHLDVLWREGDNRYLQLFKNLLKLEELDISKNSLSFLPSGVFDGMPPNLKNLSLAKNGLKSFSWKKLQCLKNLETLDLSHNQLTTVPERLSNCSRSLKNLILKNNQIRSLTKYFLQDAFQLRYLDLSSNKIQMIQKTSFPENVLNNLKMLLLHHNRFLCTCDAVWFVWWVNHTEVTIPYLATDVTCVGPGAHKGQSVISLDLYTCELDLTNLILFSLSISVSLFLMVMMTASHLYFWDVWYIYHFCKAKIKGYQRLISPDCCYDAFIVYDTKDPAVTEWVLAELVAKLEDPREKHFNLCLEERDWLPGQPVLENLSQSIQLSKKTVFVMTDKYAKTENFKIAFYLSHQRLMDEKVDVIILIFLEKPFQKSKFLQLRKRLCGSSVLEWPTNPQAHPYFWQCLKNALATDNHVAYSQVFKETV

## Cc1cc(N2CCc3c(c(C)nn3CC34CCC(NC(=O)[C@@H]5COCCN5)(CC3)CC4)C2)c2cnn(C)c2n1 [MHV-370]
Toll-like receptor 7 [1]
  IC50: 9 nM
[2]
  Vdss: 1.3 L/kg
[3]
  bioavailability: 52%
[4]
  AUC: 9.16 µM·h
[5]
  AUC: 5.67 µM·h
[6]
  MRT: 1 h
[7]
  AUC: 1.78 µM·h
[8]
  AUC: 2.82 µM·h
[9]
  Vdss: 0.7 L/kg
[10]
  Cmax: 1860 nM
[11]
  bioavailability: 32%
[12]
  Cmax: 282 nM
[13]
  MRT: 1.2 h

## Cc1cc(N2CCc3c(c(C)nn3CC34CCC(N)(CC3)CC4)C2)c2cnn(C)c2n1
Toll-like receptor 7 [1]
  IC50: 74 nM
[14]
  bioavailability: 4%
Toll-like receptor 7 [15]
  IC50: 20 nM

## CCNCC(=O)NC12CCC(Cn3nc(C)c4c3CCN(c3cc(C)nc5c3cnn5C)C4)(CC1)CC2
[2]
  Vdss: 3 L/kg
[3]
  bioavailability: 12%
[4]
  AUC: 4.63 µM·h
[5]
  AUC: 9.28 µM·h
[6]
  MRT: 2.4 h
[7]
  AUC: 1.78 µM·h
[8]
  AUC: 0.618 µM·h
Toll-like receptor 7 [15]
  IC50: 17 nM
[9]
  Vdss: 1 L/kg
[10]
  Cmax: 515 nM
[11]
  bioavailability: 10%
[12]
  Cmax: 48 nM
[13]
  MRT: 2.8 h
